The target of the data set is T1, cathepsin B (Homo sapiens, UniProt P07858).
T1 construct: gene CTSB; recombinant cathepsin B
The experiment in a line: cleavage by recombinant cathepsin B followed by HPLC (MMAE release). In kind it is biochemical.

*1 amine or outer side, *2 acyl side, *3 side chain or, on linkers, in order; H or OH if unused. Where a SMILES comes first, the peptide text is derived from it. [ ]: non-standard residue; d: D form. The star is where a group is joined. X1 = O=C(O)CC[C@H](NC(=O)N[C@@H](CCCCNC(=O)CCCCCCC(=O)*)C(=O)O)C(=O)O; Dolaproine = CO[C@@H]([C@@H]1CCCN1)[C@@H](C)C(=O)O; Dil = CC[C@H](C)[C@H](NC)[C@@H](CC(=O)O)OC; PABC = O=C(OCc1ccc(N[*:1])cc1)[*:2]; X2 = C[C@@H](N*)[C@@H](O)c1ccccc1; Cit = NC(=O)NCCC[C@H](N)C(=O)O; NMeV = CN[C@H](C(=O)O)C(C)C

On to `CC[C@H](C)[C@@H]([C@@H](CC(=O)N1CCC[C@H]1[C@H](OC)[C@@H](C)C(=O)N[C@H](C)[C@@H](O)c1ccccc1)OC)N(C)C(=O)[C@@H](NC(=O)[C@H](C(C)C)N(C)C(=O)OCc1ccc(NC(=O)[C@H](CCCNC(N)=O)NC(=O)[C@@H](NC(=O)CCCCCCC(=O)NCCCC[C@H](NC(=O)N[C@@H](CCC(=O)O)C(=O)O)C(=O)O)C(C)C)cc1)C(C)C` [SBPD-1, (6S,9S,24S,28S)-1-amino-6-((4-((5S,8S,11S)-11-((S)-sec-butyl)-12-(2-((S)-2-((1R,2R)-3-(((1S,2R)-1-hydroxy-1-phenylpropan-2-yl)amino)-1-methoxy-2-methyl-3-oxopropyl)pyrrolidin-1-yl)-2-oxoethyl)-5,8-diisopropyl-4,10-dimethyl-3,6,9-trioxo-2,13-dioxa-4,7,10-triazatetradecyl)phenyl)carbamoyl)-9-isopropyl-1,8,11,18,26-pentaoxo-2,7,10,19,25,27-hexaazatriacontane-24,28,30-tricarboxylic acid] (X1-V[Cit][PABC][NMeV]V[Dil][Dolaproine]-X2), for which the metabolised at 3 h turned out to be 80%.

(Values after paper PMC8007718, “A prostate-specific membrane antigen (PSMA)-targeted prodrug with a favorable in vivo toxicity profile” (Scientific Reports, 2021).)
